Several values for one entry are separate records, joined by “and”; a condition that tells them apart may be missing. Identical values can stand only once. Entries after “also recorded” stand apart in the source; their conditions may differ.
Assays:
[1] = tested on: Vascular smooth muscle (BO54) cells; assay type: cell-based, baboon
[2] = tested on: balloon traumatized rabbit carotid artery; assay type: in vivo; details: rabbit, in vivo
[3] = tested on: left carotid artery; experiment: Periadventitial delivery of crystals in pluronic gel after balloon trauma; assay type: in vivo, rats
Experimental: To further evaluate the efficacy of crystalline taxol to inhibit neointimal formation in rats, four groups of 5-6 adult male rats underwent balloon trauma of the left carotid artery followed immediately by periadventitial delivery of 1, 0.1,0.01 or 0 mg of taxol crystals in 500 mg of a pluronic polymer in gel matrix. Fourteen days later, the rats were sacrificed, serum was collected and their carotid arteries were processed for histologic and morphometric analysis.

[4] = tested on: left carotid artery; details: rat, in vivo
[5] = Biodistribution of ^3H-cytochalasin B i.v.; assay type: in vivo, BALB/c mice
Experimental: (§1) ^3H-cytochalasin B (2 µg; 30 µCi/µg) was injected i.v. into BALB/c mice having urinary bladders that had been externally ligated. Animals were sacrificed at 15 minutes, 30 minutes, 2 hours or 16 hours post-injection. Organs were removed, blotted, weighed, air dried and assayed for radioactivity. Fifty - 73% of the total injected dose was accounted for in the tissues sampled (blood, heart, brain, muscle, bone, lung, liver, spleen, stomach, kidney, intestines, and urinary bladder). Clearance of ^3H-cytochalasin B from the blood was extremely rapid with less than 1% of the injected dose in circulation by 15 minutes. […] Cytochalasin B Metabolism. ^3H-cytochalasin B at a dose of 1.5 or 8 µg/ml was mixed with viable or non-viable human liver slices and media, and the amount of ^3H-cytochalasin B in media or tissue assessed by HPLC (Tables 8 and 9).

[6] = Human liver slices distribution and metabolism study (HPLC); assay type: in vitro ADME; details: for % Activity in Media / % Activity in Tissue: 37°C
Experimental: as §1

[7] = MTT activity in human liver slices after 24 hour exposure; assay type: cell-based; details: for MTT Absorbance: 24 hours, mean +/- standard deviation of triplicate liver samples
Experimental: The cytotoxity of ^3H-cytochalasin B and its subsequent metabolites was also assessed by evaluating dose dependent changes in mitochondrial function by monitoring 3-[4, 5-dimethylthiazol-2yl]-2, 5-diphenyltetrazolium bromide (MTT) activity following a 24 hour exposure of human liver slices to the test agent (Table 10).

[8] = Tissue distribution after intravascular delivery of crystals; assay type: in vivo, swine; details: 10 µg/ml crystals in saline (saturated), three minutes under 1 atm
Experimental: The in vivo tissue distribution of cytochalasin B administered in crystalline form was evaluated in balloon traumatized swine femoral arteries after local delivery. A femoral artery of a Yorkshire crossbred swine was balloon traumatized by overinflation and rotation of a Vascu-Flo™ Silicone embolectomy catheter. Balloon trauma was immediately followed by intravascular delivery of 10 µg/ml ^3H-cytochalasin B crystals (Sigma Chemical Co., St. Louis, MO) in saline (saturated) for three minutes under 1 atm of pressure. Blood flow was resumed in the artery for five minutes prior to sacrifice of the animal.

[9] = 1.5 µg/ml, Media/viable tissue, 1/4/24 Hours = r5/r6/r7
[10] = 1.5 µg/ml, Media/viable tissue, 1/4/24 Hours = r2/r3/r4
[11] = 8 µg/ml, Media/boiled tissue, 1/4/24 Hours = r8/r9/r10
[12] = 8 µg/ml, Media/viable tissue, 1/4/24 Hours = r2/r3/r4
[13] = 8 µg/ml, Media/viable tissue, 1/4/24 Hours = r5/r6/r7

CC(=O)O[C@@H]1/C=C\[C@@](C)(O)C(=O)[C@@H](C)C/C=C\[C@H]2[C@H](O)C(C)=C(C)[C@H]3C(Cc4ccccc4)NC(=O)[C@]132 (stereo partly drawn) [cytochalasin C]
minimum effective dose (MED), DNA synthesis assay [1]: 0.01 µg/mL

O=[N+]([O-])OCC(CO[N+](=O)[O-])O[N+](=O)[O-] [nitroglycerin]
therapeutic range (area under the curve of ^3H-leucine assay greater than ^3H-thymidine assay) [1]: available therapeutic range

CN[C@@H]1C[C@H]2O[C@@](C)([C@@H]1OC)n1c3ccccc3c3c4c(c5c6ccccc6n2c5c31)C(=O)NC4 [staurosporin]
therapeutic range (area under the curve of ^3H-leucine assay greater than ^3H-thymidine assay) [1]: available therapeutic range

Cc1ccc(C(=O)Nc2ccc(S(=O)(=O)O)c3cc(S(=O)(=O)O)cc(S(=O)(=O)O)c23)cc1NC(=O)c1cccc(NC(=O)Nc2cccc(C(=O)Nc3cc(C(=O)Nc4ccc(S(=O)(=O)O)c5cc(S(=O)(=O)O)cc(S(=O)(=O)O)c45)ccc3C)c2)c1 [suramin]
therapeutic range (area under the curve of ^3H-leucine assay greater than ^3H-thymidine assay) [1]: available therapeutic range

CC(=O)O[C@H]1C(=O)[C@@]2(C)[C@H]([C@H](OC(=O)c3ccccc3)[C@]3(O)C[C@H](OC(=O)[C@H](O)[C@@H](NC(=O)c4ccccc4)c4ccccc4)C(C)=C1C3(C)C)[C@]1(OC(C)=O)CO[C@@H]1C[C@@H]2O [taxol]
intimal proliferation [2]: no intimal or adventitial proliferation; also recorded: no intimal proliferation; also recorded: only minimal intimal proliferation | myonecrosis of the adjacent skeletal muscle (animals) ([3]; 0.01 mg crystals in 500 mg pluronic gel): 0/4 | myonecrosis of the adjacent skeletal muscle (animals) ([3]; 0.1 mg crystals in 500 mg pluronic gel): 1/5 | myonecrosis of the adjacent skeletal muscle (animals) ([3]; 1 mg crystals in 500 mg pluronic gel): 3/3 | neointimal area less than that of control animals ([3]; 1 mg crystals in 500 mg pluronic gel, too few animals for statistics): 38% | neointimal area and neointimal/medial ratio compared to control animals ([3]; 0.1 and 0.01 mg, did not reach statistical significance): a reduction in their neointimal area and neointimal/medial ratio was observed | toxicity by dose group ([3]; crystals in pluronic gel): no (0.01 mg), minimal (0.1 mg) or limited (1.0 mg) toxicity | morphometry compared to untreated control animals [4]: statistically significantly larger luminal areas and no neointimal proliferation | toxicity at the surgical site [4]: significant toxicity at the surgical site

^3H-cytochalasin B
^3H activity in all tissues ([5]; by 16 hours): below 1.5 % injected dose per gram of tissue | retention of ^3H activity ([5]; mouse, in vivo): Only liver, skeletal muscle and intestines showed significant retention | % Extractable Activity [6, 9]: 99.5% and 99.4% and 99.6% | %Non extractable Activity [6, 9]: 0.5% and 0.6% and 0.4% | % Activity in Media [6, 10]: 84% and 91% | % Activity in Tissue [6, 10]: 16% and 9% | % Metabolized of Extractable Activity ([6]; 8 µg/ml, Media Only, 1/4/24 Hours = r11/r12/r13): 5% and 4% | % Extractable Activity [6, 11]: 98.7% and 99.5% and 99.0% | % Metabolized of Extractable Activity [6, 11]: 5% | %Non extractable Activity [6, 11]: 1.3% and 0.5% and 1% | % Activity in Media [6, 11]: 87% and 83% | % Activity in Tissue [6, 11]: 13% and 17% | % Extractable Activity [6, 12]: 99.5% and 99.0% and 98.7% | %Non extractable Activity [6, 12]: 0.5% and 1% and 1.3% | % Activity in Media [6, 13]: 88% and 84% and 89% | % Activity in Tissue [6, 13]: 12% and 16% and 11% | metabolized ([6]; within 24 hours): 98% | MTT Absorbance ([7]; 0.1 µg/ml): 0.844 +/- 0.014 | MTT Absorbance ([7]; 1.5 µg/ml): 0.841 +/- 0.081 | MTT Absorbance ([7]; 8.0 µg/ml): 0.850 +/- 0.082 | cytotoxicity of ^3H-cytochalasin B or its subsequent metabolites ([7]; 24 hour exposure): not cytotoxic | amount delivered [8]: 31 µg | tissue distribution [8]: localized predominantly to the adventitia

Source: patent publication EP2292225A1 (priority 1997, dated 1998)
